Measurements as given in patent US11673894B2, “Imidazopyrimidines and triazolopyrimidines as A2A / A2B inhibitors” (Incyte Corporation, priority 2018, dated 2023).

Legend:
[1] = molecular target: human adenosine A2B receptor (Homo sapiens (Human), UniProt P29275); assay: Adenosine A2B Receptor Cyclic AMP GS Assay; format: cell-based; settings: HEK-293 cells expressing human A2B receptor; agonist NECA at 12 nM; cAMP accumulation (FRET); read-out: A2B_cAMP_EC50
Experimental: Stably transfected HEK-293 cells expressing the human adenosine A2B receptor (Perkin Elmer) were maintained in MEM culture medium with 10% FBS and 100 μg/ml Geneticin (Life Technologies). 18 to 24 hours prior to assay, geneticin was removed from culture. The cisbio cAMP-GS Dynamic kit utilizing the FRET (Fluorescence Resonance Energy Transfer) technology was used to measure cAMP accumulation in the cells. Compounds of the present disclosure at an appropriate concentration were mixed with 10000 cells/well in white 96 well half area plates (Perkin Elmer) for 30 min at RT gently shaking. Agonist, NECA (R&D Technologies) at 12 nM was added to each well for 60 min at RT gently shaking. Detection reagents, d2-labeled cAMP (acceptor) and anti-cAMP cryptate (donor) were added to each well for 60 min at RT gently shaking. Plates were read on Pherastar (BMG Labtech), fluorescence ratio 665/620 was calculated and EC50 determination was performed by fitting the curve of percent of control versus the log of the compound concentration using GraphPad Prism.

Adenosine A2A receptor = Adenosine A2A receptor (Homo sapiens (Human), UniProt P29274); assay: A2A Tag-lite HTRF Assay; settings: Tag-lite Adenosine A2A labeled cells; A2A Receptor Red antagonist fluorescent ligand 12.5 nM; one-site competitive binding model; read-out: A2A_Ki
Description: The final concentration of DMSO was 1%.

Sequence of Adenosine A2A receptor (P29274 whole entry): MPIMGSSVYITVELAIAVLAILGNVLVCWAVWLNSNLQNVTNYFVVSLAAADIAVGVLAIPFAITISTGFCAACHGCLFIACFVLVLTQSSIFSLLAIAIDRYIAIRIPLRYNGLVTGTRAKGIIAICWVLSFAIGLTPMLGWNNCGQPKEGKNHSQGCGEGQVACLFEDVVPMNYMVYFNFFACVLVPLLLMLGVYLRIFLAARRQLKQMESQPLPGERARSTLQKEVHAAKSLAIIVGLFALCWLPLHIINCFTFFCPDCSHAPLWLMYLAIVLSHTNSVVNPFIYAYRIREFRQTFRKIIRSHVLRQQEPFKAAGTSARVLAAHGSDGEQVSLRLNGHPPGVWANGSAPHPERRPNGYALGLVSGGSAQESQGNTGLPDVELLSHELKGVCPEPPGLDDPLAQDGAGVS
Sequence of human adenosine A2B receptor (P29275 whole entry): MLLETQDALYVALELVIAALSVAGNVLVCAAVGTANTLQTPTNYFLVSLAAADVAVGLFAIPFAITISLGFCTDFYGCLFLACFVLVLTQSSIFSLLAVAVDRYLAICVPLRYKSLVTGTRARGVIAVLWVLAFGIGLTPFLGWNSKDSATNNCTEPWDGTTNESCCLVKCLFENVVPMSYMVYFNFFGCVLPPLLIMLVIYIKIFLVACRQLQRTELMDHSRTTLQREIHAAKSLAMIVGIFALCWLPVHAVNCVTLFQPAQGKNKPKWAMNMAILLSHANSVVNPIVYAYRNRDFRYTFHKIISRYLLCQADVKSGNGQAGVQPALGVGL

Row | SMILES | EC50 [1] | Ki (Adenosine A2A receptor)
1 | CCNC(=O)c1cn2c(N)nc(-c3cccc(C#N)c3)c(-c3ccnn3C(C)C)c2n1 [Example 36, 5-Amino-7-(3-cyanophenyl)-N-ethyl-8-(1-isopropyl-1H-pyrazol-5-yl)imidazo[1,2-c]pyrimidine-2-carboxamide] | 10 to 100 nM | < 10 nM
2 | CCNC(=O)c1cn2c(N)nc(-c3cccc(C#N)c3)c(-c3ccnn3CC)c2n1 [Example 35, 5-Amino-7-(3-cyanophenyl)-N-ethyl-8-(1-ethyl-1H-pyrazol-5-yl)imidazo[1,2-c]pyrimidine-2-carboxamide] | < 10 nM | < 10 nM
3 | Cc1cccnc1COc1nc2c(-c3ccncn3)c(-c3cccc(C#N)c3)nc(N)n2n1 [Example 94, 3-(5-Amino-2-((3-methylpyridin-2-yl)methoxy)-8-(pyrimidin-4-yl)-[1,2,4]triazolo[1,5-c]pyrimidin-7-yl)benzonitrile] | < 10 nM | < 10 nM
4 | N#Cc1cccc(-c2nc(N)n3nc(Cc4ccccn4)nc3c2-c2cnn3ncccc23)c1 [Example 60, 3-(5-Amino-8-(pyrazolo[1,5-b]pyridazin-3-yl)-2-(pyridin-2-ylmethyl)-[1,2,4]triazolo[1,5-c]pyrimidin-7-yl)benzonitrile] | 10 to 100 nM | < 10 nM
5 | N#Cc1cccc(-c2nc(N)n3nc(Cc4ncccc4F)nc3c2-c2ccncn2)c1 [Example 88, 3-(5-Amino-2-((3-fluoropyridin-2-yl)methyl)-8-(pyrimidin-4-yl)-[1,2,4]triazolo[1,5-c]pyrimidin-7-yl)benzonitrile] | < 10 nM | < 10 nM
6 | Cc1cccnc1CNc1nc2c(-c3ccncn3)c(-c3cccc(C#N)c3)nc(N)n2n1 [Example 97, 3-(5-Amino-2-(((3-methylpyridin-2-yl)methyl)amino)-8-(pyrimidin-4-yl)-[1,2,4]triazolo[1,5-c]pyrimidin-7-yl)benzonitrile] | < 10 nM | < 10 nM
7 | N#Cc1cccc(-c2nc(Nc3ncccc3C#N)n3nc(C(O)c4ccccc4)nc3c2-c2ccncn2)c1 (stereo not shown) [Example 68, 2-((7-(3-Cyanophenyl)-2-(hydroxy(phenyl)methyl)-8-(pyrimidin-4-yl)-[1,2,4]triazolo[1,5-c]pyrimidin-5-yl)amino)nicotinonitrile] | 100 to 1000 nM | < 10 nM
8 | CCNC(=O)c1cn2c(N)nc(-c3cccc(C#N)c3)c(-c3ccncc3C)c2n1 [Example 27, 5-Amino-7-(3-cyanophenyl)-N-ethyl-8-(3-methylpyridin-4-yl)imidazo[1,2-c]pyrimidine-2-carboxamide] | 10 to 100 nM | < 10 nM
9 | CCNC(=O)c1cn2c(N)nc(-c3cccc(C#N)c3)c(-c3ccncc3Cl)c2n1 [Example 29, 5-Amino-7-(3-cyanophenyl)-N-ethyl-8-(3-chloropyridin-4-yl)imidazo[1,2-c]pyrimidine-2-carboxamide] | < 10 nM | < 10 nM
10 | Cc1ncoc1-c1c(-c2cccc(C#N)c2)nc(N)n2nc(Cc3ccn(C)n3)nc12 [Example 92, 3-(5-Amino-2-((1-methyl-1H-pyrazol-3-yl)methyl)-8-(4-methyloxazol-5-yl)-[1,2,4]triazolo[1,5-c]pyrimidin-7-yl)benzonitrile] | < 10 nM | < 10 nM
11 | CCCn1nccc1-c1c(-c2cccc(C#N)c2)nc(N)n2nc(Cc3ccccn3)nc12 [Example 43, 3-(5-Amino-8-(1-propyl-1H-pyrazol-5-yl)-2-(pyridin-2-ylmethyl)-[1,2,4]triazolo[1,5-c]pyrimidin-7-yl)benzonitrile] | < 10 nM | < 10 nM
12 | CCn1nccc1-c1c(-c2cccc(C#N)c2)nc(N)n2nc(C3(c4ccccc4)CC3)nc12 [Example 67, 3-(5-Amino-8-(1-ethyl-1H-pyrazol-5-yl)-2-(1-phenylcyclopropyl)-[1,2,4]triazolo[1,5-c]pyrimidin-7-yl)benzonitrile] | 100 to 1000 nM | < 10 nM
13 | CCn1nccc1-c1c(-c2cccc(C#N)c2)nc(N)n2nc(Cc3ncccc3OC)nc12 [Example 53, 3-(5-Amino-8-(1-ethyl-1H-pyrazol-5-yl)-2-((3-methoxypyridin-2-yl)methyl)-[1,2,4]triazolo[1,5-c]pyrimidin-7-yl)benzonitrile] | 10 to 100 nM | < 10 nM
14 | CCNC(=O)c1cn2c(N)nc(-c3cccc(C#N)c3)c(-c3ccnc4c3OCCO4)c2n1 [Example 39, 5-Amino-7-(3-cyanophenyl)-8-(2,3-dihydro-[1,4]dioxino[2,3-b]pyridin-8-yl)-N-ethylimidazo[1,2-c]pyrimidine-2-carboxamide] | 10 to 100 nM | < 10 nM
15 | N#Cc1cccc(-c2nc(N)n3nc(Cc4ccccn4)nc3c2-c2ncncc2F)c1 [Example 46, 3-(5-Amino-8-(5-fluoropyrimidin-4-yl)-2-(pyridin-2-ylmethyl)-[1,2,4]triazolo[1,5-c]pyrimidin-7-yl)benzonitrile] | < 10 nM | < 10 nM
16 | CCNC(=O)c1cn2c(N)nc(-c3ccccc3)c(C3CCN(C(N)=O)CC3)c2n1 [Example 16, 5-Amino-8-(1-carbamoylpiperidin-4-yl)-N-ethyl-7-phenylimidazo[1,2-c]pyrimidine-2-carboxamide] | 100 to 1000 nM | < 10 nM
17 | CCNC(=O)c1nc2c(-c3ccnc(OC)c3)c(-c3cccc(C#N)c3)nc(N)n2c1OCCO [Example 17, 5-Amino-7-(3-cyanophenyl)-JV-ethyl-3-(2-hydroxyethoxy)-8-(2-methoxypyridin-4-yl)imidazo[1,2-c]pyrimidine-2-carboxamide] | 10 to 100 nM | < 10 nM
18 | CCNC(=O)c1cn2c(N)nc(-c3cccc(C#N)c3)c(C3CC3)c2n1 [Example 40, 5-Amino-7-(3-cyanophenyl)-8-cyclopropyl-N-ethylimidazo[1,2-c]pyrimidine-2-carboxamide] | > 1000 nM | 10 to 100 nM
19 | CCn1nccc1-c1c(-c2cccc(C#N)c2)nc(N)n2nc(Cc3ccccn3)nc12 [Example 42, 3-(5-Amino-8-(1-ethyl-1H-pyrazol-5-yl)-2-(pyridin-2-ylmethyl)-[1,2,4]triazolo[1,5-c]pyrimidin-7-yl)benzonitrile] | < 10 nM | < 10 nM
20 | N#Cc1cccc(-c2nc(N)n3nc(C(O)c4ccccc4F)nc3c2-c2ccncn2)c1 (stereo not shown) [Example 50, 3-(5-Amino-2-((2-fluorophenyl)(hydroxy)methyl)-8-(pyrimidin-4-yl)-[1,2,4]triazolo[1,5-c]pyrimidin-7-yl)benzonitrile] | < 10 nM | < 10 nM
21 | Cn1cc(-c2ccccc2Cc2nc3c(-c4ccncn4)c(-c4cccc(C#N)c4)nc(N)n3n2)cn1 [Example 54, 3-(5-Amino-2-(2-(1-methyl-1H-pyrazol-4-yl)benzyl)-8-(pyrimidin-4-yl)-[1,2,4]triazolo[1,5-c]pyrimidin-7-yl)benzonitrile] | < 10 nM | < 10 nM
22 | N#Cc1cccc(-c2nc(N)n3nc(NC(C#N)c4ccccc4)nc3c2-c2ccncn2)c1 (stereo not shown) [Example 69, 3-(5-Amino-2-((cyano(phenyl)methyl)amino)-8-(pyrimidin-4-yl)-[1,2,4]triazolo[1,5-c]pyrimidin-7-yl)benzonitrile] | 10 to 100 nM | < 10 nM
23 | Cc1cc(-c2c(-c3ccccc3)nc(N)n3cc(C(N)=O)nc23)ccn1 [Example 14, 5-Amino-8-(2-methylpyridin-4-yl)-7-phenylimidazo[1,2-c]pyrimidine-2-carboxamide] | 10 to 100 nM | < 10 nM
24 | CCn1cc(-c2c(-c3cccc(C#N)c3)nc(N)n3cc(C(=O)N4CC(O)C4)nc23)ccc1=O [Example 24, 3-(5-Amino-8-(1-ethyl-6-oxo-1,6-dihydropyridin-3-yl)-2-(3-hydroxyazetidine-1-carbonyl)imidazo[1,2-c]pyrimidin-7-yl)benzonitrile] | < 10 nM | < 10 nM
25 | N#Cc1cccc(-c2nc(N)n3nc([C@@H](O)c4ccccc4)nc3c2-c2ccncn2)c1 [Example 64, (S)-3-(5-amino-2-(hydroxy(phenyl)methyl)-8-(pyrimidin-4-yl)-[1,2,4]triazolo[1,5-c]pyrimidin-7-yl)benzonitrile] | < 10 nM | < 10 nM
26 | N#Cc1cccc(-c2nc(N)n3nc(C(=O)c4ccccc4)nc3c2-c2ccncn2)c1 [Example 66, 3-(5-Amino-2-benzoyl-8-(pyrimidin-4-yl)-[1,2,4]triazolo[1,5-c]pyrimidin-7-yl)benzonitrile] | < 10 nM | < 10 nM
27 | COc1cc(-c2c(-c3cccc(C#N)c3)nc(N)n3nc(Cc4ccccn4)nc23)cc(C)n1 [Example 59, 3-(5-Amino-8-(2-methoxy-6-methylpyridin-4-yl)-2-(pyridin-2-ylmethyl)-[1,2,4]triazolo[1,5-c]pyrimidin-7-yl)benzonitrile] | 10 to 100 nM | < 10 nM
28 | CCNC(=O)c1cn2c(N)nc(-c3cccc(C#N)c3)c(-c3ccncc3C#N)c2n1 [Example 31, 5-Amino-7-(3-cyanophenyl)-N-ethyl-8-(3-cyanopyridin-4-yl)imidazo[1,2-c]pyrimidine-2-carboxamide] | 10 to 100 nM | < 10 nM
29 | Cn1ccc(Cc2nc3c(-c4cnco4)c(-c4cccc(C#N)c4)nc(N)n3n2)n1 [Example 93, 3-(5-Amino-2-((1-methyl-1H-pyrazol-3-yl)methyl)-8-(oxazol-5-yl)-[1,2,4]triazolo[1,5-c]pyrimidin-7-yl)benzonitrile] | < 10 nM | < 10 nM
